Reference: ChEMBL document CHEMBL4392840, “Further sesquiterpenoids from the rhizomes of Homalomena occulta and their anti-inflammatory activity” (Bioorg Med Chem Lett, 2019)
Active and inactive are the calls of the source. The rule behind the calls is not given here.

How the values were obtained:
Type in all cases: functional, cell-based
RAW264.7 [1] = assay: Antiinflammatory activity in mouse RAW264.7 cells assessed as inhibition of LPS-induced COX2 mRNA expression at 50 uM preincubated for 30 mins followed by LPS-stimulation and measured after 18 hrs by QuantiFast SYBR Green dye based RT-PCR analysis
RAW264.7 [2] = assay: Antiinflammatory activity in mouse RAW264.7 cells assessed as inhibition of LPS-induced COX2 expression at 1 to 10 uM preincubated for 30 mins followed by LPS-stimulation and measured after 18 hrs by Western blot analysis
RAW264.7 [3] = assay: Antiinflammatory activity in mouse RAW264.7 cells assessed as inhibition of LPS-induced COX2 mRNA expression preincubated for 30 mins followed by LPS-stimulation and measured after 18 hrs by QuantiFast SYBR Green dye based RT-PCR analysis
RAW264.7 [4] = assay: Antiinflammatory activity in mouse RAW264.7 cells assessed as inhibition of LPS-induced COX2 mRNA expression at 10 uM preincubated for 30 mins followed by LPS-stimulation and measured after 18 hrs by QuantiFast SYBR Green dye based RT-PCR analysis
RAW264.7 [5] = assay: Antiinflammatory activity in mouse RAW264.7 cells assessed as inhibition of LPS-induced PGE2 formation preincubated for 30 mins followed by LPS-stimulation and measured after 18 hrs by ELISA

Row | Compound | inhibition (RAW264.7 [1]) | inhibition (RAW264.7 [2]) | inhibition (RAW264.7 [3]) | inhibition (RAW264.7 [4]) | inhibition (RAW264.7 [5])
1 | Cc1cnc(NC(=O)C2=C(O)c3ccccc3S(=O)(=O)N2C)s1 | Active |  |  |  | 
2 | CC1(C)[C@H]2[C@H]3[C@@H](CC[C@]3(C)O)[C@](C)(O)CC[C@H]21 |  | Active | Dose-dependent effect | Active | 
3 | C[C@@H]1CC[C@H]2[C@@H]1[C@H]1[C@@H](CC[C@@]2(C)O)C1(C)C |  | Active | Dose-dependent effect | Active | 
4 | CC(C)[C@@H](O)[C@H]1CC[C@@]2(C)[C@@H]1[C@]1(C)CC[C@H]2O1 |  | Active | Dose-dependent effect | Active | Dose-dependent effect
